Consider 15 molecules from patent US9650340B2, “5-fluoro-N-(pyridin-2-yl)pyridin-2-amine derivatives containing a sulfoximine group” (BAYER PHARMA AKTIENGESELLSCHAFT, priority 2012, dated 2017).

The target in one assay is T1, CDK2/CycE (Homo sapiens, UniProt P24941).
T1 construct: GST; purchased ProQinase GmbH (Freiburg, Germany); host or cells: insect cells (Sf9)
Briefly: CDK2/CycE high ATP kinase assay (TR-FRET, 2 mM ATP). Type of assay: biochemical. The settings on record: Method 2b. The method, then: 2b. CDK2/CycE High ATP Kinase Assay:
CDK2/CycE-inhibitory activity of compounds of the present invention at 2 mM adenosine-tri-phosphate (ATP) was quantified employing the CDK2/CycE TR-FRET (TR-FRET=Time Resolved Fluorescence Energy Transfer) assay as described in the following paragraphs.
Recombinant fusion proteins of GST and human CDK2 and of GST and human CycE, expressed in insect cells (Sf9) and purified by Glutathion-Sepharose affinity chromatography, were purchase from ProQinase GmbH (Freiburg, Germany). As substrate for the kinase reaction biotinylated peptide biotin-Ttds-[…] (C-terminus in amid form) was used which can be purchased e.g. form the company JERINI peptide technologies (Berlin, Germany).
For the assay 50 nl of a 100 fold concentrated solution of the test compound in DMSO was pipetted into a black low volume 384 well microtiter plate (Greiner Bio-One, Frickenhausen, Germany), 2 μl of a solution of CDK2/CycE in aqueous assay buffer [50 mM Tris/HCl pH 8.0, 10 mM MgCl2, 1.0 mM dithiothreitol, 0.1 mM sodium ortho-vanadate, 0.01% (v/v) Nonidet-P40 (Sigma)] were added and the mixture was incubated for 15 min at 22° C. to allow pre-binding of the test compounds to the enzyme before the start of the kinase reaction. Then the kinase reaction was started by the addition of 3 μl of a solution ATP (3.33 mM=>final conc. in the 5 μl assay volume is 2 mM) and substrate (1.25 μM=>final conc. in the 5 μl assay volume is 0.75 μM) in assay buffer and the resulting mixture was incubated for a reaction time of 25 min at 22° C. The concentration of CDK2/CycE was adjusted depending of the activity of the enzyme lot and was chosen appropriate to have the assay in the linear range, typical concentrations were in the range of 15 ng/ml. The reaction was stopped by the addition of 5 μl of a solution of TR-FRET detection reagents (0.2 μM streptavidine-XL665 [Cisbio Bioassays, Codolet, France] and 1 nM anti-RB(pSer807/pSer811)-antibody from BD Pharmingen [#558389] and 1.2 nM LANCE EU-W1024 labeled anti-mouse IgG antibody [Perkin-Elmer, product no. AD0077, as an alternative a Terbium-cryptate-labeled anti-mouse IgG antibody from Cisbio Bioassays can be used]) in an aqueous EDTA-solution (100 mM EDTA, 0.2% (w/v) bovine serum albumin in 100 mM HEPES/NaOH pH 7.0).
The resulting mixture was incubated 1 h at 22° C. to allow the formation of complex between the phosphorylated biotinylated peptide and the detection reagents. Subsequently the amount of phosphorylated substrate was evaluated by measurement of the resonance energy transfer from the Eu-chelate to the streptavidine-XL. Therefore, the fluorescence emissions at 620 nm and 665 nm after excitation at 350 nm were measured in a TR-FRET reader, e.g. a Rubystar (BMG Labtechnologies, Offenburg, Germany) or a Viewlux (Perkin-Elmer). The ratio of the emissions at 665 nm and at 622 nm was taken as the measure for the amount of phosphorylated substrate.
A general note: TR-FRET usually uses a lanthanide donor and a delayed reading to cut background.

In the next assay the target is T2, CDK9/CycT1 (Homo sapiens, UniProt P50750).
T2 construct: Recombinant full-length His-tagged human CDK9 and CycT1; His; purchased Invitrogen PV4131; host or cells: insect cells
Briefly: CDK9/CycT1 kinase assay (TR-FRET, 10 μM ATP). Format: biochemical. The settings on record: Method 1a. The source says: 1a. CDK9/CyeT1 Kinase Assay:
CDK9/CycT1-inhibitory activity of compounds of the present invention was quantified employing the CDK9/CycT1 TR-FRET assay as described in the following paragraphs:
Recombinant full-length His-tagged human CDK9 and CycT1, expressed in insect cells and purified by Ni-NTA affinity chromatography, were purchased from Invitrogen (Cat. No PV4131). As substrate for the kinase reaction biotinylated peptide biotin-Ttds-[…] (C-terminus in amid form) was used which can be purchased e.g. form the company JERINI Peptide Technologies (Berlin, Germany). For the assay 50 nl of a 100 fold concentrated solution of the test compound in DMSO was pipetted into a black low volume 384 well microtiter plate (Greiner Bio-One, Frickenhausen, Germany), 2 μl of a solution of CDK9/CycT1 in aqueous assay buffer [50 mM Tris/HCl pH 8.0, 10 mM MgCl2, 1.0 mM dithiothreitol, 0.1 mM sodium ortho-vanadate, 0.01% (v/v) Nonidet-P40 (Sigma)] were added and the mixture was incubated for 15 min at 22° C. to allow pre-binding of the test compounds to the enzyme before the start of the kinase reaction.
The resulting mixture was incubated 1 h at 22° C. to allow the formation of complex between the phosphorylated biotinylated peptide and the detection reagents. Subsequently the amount of phosphorylated substrate was evaluated by measurement of the resonance energy transfer from the Eu-chelate to the streptavidine-XL.

T2 sequence (P50750 whole entry): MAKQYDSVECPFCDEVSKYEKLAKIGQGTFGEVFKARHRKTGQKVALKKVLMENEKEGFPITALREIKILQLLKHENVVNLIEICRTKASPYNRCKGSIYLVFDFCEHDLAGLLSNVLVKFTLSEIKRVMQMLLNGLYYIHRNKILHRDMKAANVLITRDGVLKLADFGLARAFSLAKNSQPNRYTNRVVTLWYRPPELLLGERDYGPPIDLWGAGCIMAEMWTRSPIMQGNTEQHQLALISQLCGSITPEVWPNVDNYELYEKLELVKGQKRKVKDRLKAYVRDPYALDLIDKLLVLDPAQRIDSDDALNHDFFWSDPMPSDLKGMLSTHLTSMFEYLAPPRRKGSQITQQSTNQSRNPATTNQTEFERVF
T2 sequence (O60563 whole entry partner): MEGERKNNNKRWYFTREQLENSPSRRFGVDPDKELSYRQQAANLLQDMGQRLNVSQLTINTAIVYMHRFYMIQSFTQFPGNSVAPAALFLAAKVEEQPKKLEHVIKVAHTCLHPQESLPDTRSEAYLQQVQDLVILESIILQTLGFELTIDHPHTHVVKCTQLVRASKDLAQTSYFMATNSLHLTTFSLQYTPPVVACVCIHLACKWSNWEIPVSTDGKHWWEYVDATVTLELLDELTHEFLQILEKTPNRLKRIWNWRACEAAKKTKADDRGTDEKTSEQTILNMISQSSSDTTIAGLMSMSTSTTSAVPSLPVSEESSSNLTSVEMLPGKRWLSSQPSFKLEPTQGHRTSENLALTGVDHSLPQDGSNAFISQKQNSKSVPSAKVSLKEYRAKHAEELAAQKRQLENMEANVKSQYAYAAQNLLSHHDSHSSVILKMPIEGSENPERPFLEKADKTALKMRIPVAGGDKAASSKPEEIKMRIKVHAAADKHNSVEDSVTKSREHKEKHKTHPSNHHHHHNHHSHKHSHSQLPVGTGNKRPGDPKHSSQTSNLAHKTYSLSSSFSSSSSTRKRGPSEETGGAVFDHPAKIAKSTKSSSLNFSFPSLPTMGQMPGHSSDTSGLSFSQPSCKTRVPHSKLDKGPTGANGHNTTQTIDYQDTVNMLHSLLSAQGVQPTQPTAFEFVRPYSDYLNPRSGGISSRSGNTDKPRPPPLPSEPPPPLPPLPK

For the molecule `CCOC(=O)N=S(C)(=O)Cc1cc(Nc2cc(-c3ccc(F)cc3OC)c(F)cn2)nc(OC)c1` (racemic) [Example 15, (rac)-ethyl{[(2-{[5-fluoro-4-(4-fluoro-2-methoxyphenyl)pyridin-2-yl]amino}-6-methoxypyridin-4-yl)methyl](methyl)oxido-λ^6-sulfanylidene}carbamate], the IC50 on CDK2/CycE amounted to 123 nM; at CDK9/CycT1 it was 2 nM.

With `COc1cc(F)ccc1-c1cc(Nc2cc(CS(C)(=N)=O)cc(F)n2)ncc1F` (racemic) [Example 17, (rac)-5-Fluoro-4-(4-fluoro-2-methoxyphenyl)-N-{6-fluoro-4-[(S-methylsulfonimidoyl)methyl]pyridin-2-yl}pyridin-2-amine], the IC50 stood at 886 nM on CDK2/CycE and 0.9 nM at CDK9/CycT1.

On to `COc1cc(F)ccc1-c1cc(Nc2cc(CS(C)(=N)=O)cc(C(F)(F)F)n2)ncc1F` (racemic) [Example 21, (rac)-5-Fluoro-4-(4-fluoro-2-methoxyphenyl)-N-{4-[(S-methylsulfonimidoyl)methyl]-6-(trifluoromethyl)pyridin-2-yl}pyridin-2-amine], for which the IC50 at CDK2/CycE was determined as 133 nM; at CDK9/CycT1, 2 nM.

For the molecule `CCOc1cc(F)ccc1-c1cc(Nc2cc(CS(C)(=N)=O)cc(F)n2)ncc1F` (racemic) [Example 26, (rac)-4-(2-Ethoxy-4-fluorophenyl)-5-fluoro-N-{6-fluoro-4-[(S-methylsulfonimidoyl)methyl]pyridin-2-yl}pyridin-2-amine], the IC50 was 1200 nM against CDK2/CycE and 3 nM on CDK9/CycT1.

As for `CCOc1cc(F)ccc1-c1cc(Nc2cc(CS(C)(=O)=NC(=O)C(F)(F)F)cc(F)n2)ncc1F` (racemic) [Example 27, (rac)-N-{[(2-{[4-(2-Ethoxy-4-fluoro-phenyl)-5-fluoropyridin-2-yl]amino}-6-fluoropyridin-4-yl)methyl]-(methyl)oxido-λ^6-sulfanylidene}-2,2,2-trifluoroacetamide], the IC50 against CDK2/CycE is no less than 20000 nM; on CDK9/CycT1 it was 9 nM.

Consider `CCS(=N)(=O)Cc1ccnc(Nc2cc(-c3ccc(F)cc3OC)c(F)cn2)c1` (racemic) [Example 30, (rac)-N-{4-[(S-Ethylsulfonimidoyl)-methyl]pyridin-2-yl}-5-fluoro-4-(4-fluoro-2-methoxyphenyl)pyridin-2-amine], for which the IC50 amounted to 300 nM on CDK2/CycE and 3 nM at CDK9/CycT1.

For `COc1cc(F)ccc1-c1cc(Nc2cc(CS(C)(=N)=O)cc(C(F)F)n2)ncc1F` (racemic) [Example 31, (rac)-N-{6-(Difluoromethyl)-4-[(S-methylsulfonimidoyl)methyl]pyridin-2-yl}-5-fluoro-4-(4-fluoro-2-methoxyphenyl)pyridin-2-amine], the IC50 stood at 229 nM at CDK2/CycE and 3 nM at CDK9/CycT1.

`COc1cc(F)ccc1-c1cc(Nc2cc(CS(C)(=O)=NC#N)ccn2)ncc1F` (single isomer, unassigned) [Example 10, {[(2-{[5-Fluoro-4-(4-fluoro-2-methoxyphenyl)pyridin-2-yl]amino}pyridin-4-yl)methyl](methyl)oxido-λ^6-sulfanylidene}cyanamide]: the values for the IC50 at CDK2/CycE and against CDK9/CycT1 were 1420 nM and 4 nM, respectively.

In the case of `COc1cc(F)ccc1-c1cc(Nc2cc(CS(C)(=N)=O)cc(F)n2)ncc1F` (single isomer, unassigned; (+)) [Example 19, (+)-5-Fluoro-4-(4-fluoro-2-methoxyphenyl)-N-{6-fluoro-4-[(S-methylsulfonimidoyl)methyl]pyridin-2-yl}pyridin-2-amine], the values for the IC50 on CDK2/CycE and against CDK9/CycT1 were 1370 nM and 5 nM, respectively.

`COc1cc(F)ccc1-c1cc(Nc2cc(CS(C)(=N)=O)cc(C(F)(F)F)n2)ncc1F` (single isomer, unassigned; (+)) [Example 22, (+)-5-Fluoro-4-(4-fluoro-2-methoxyphenyl)-N-{4-[(S-methylsulfonimidoyl)methyl]-6-(trifluoromethyl)pyridin-2-yl}pyridin-2-amine]: the results for the 50% inhibitory concentration (IC50) against CDK2/CycE and against CDK9/CycT1 were 233 nM and 2 nM, respectively.

Take `COc1cc(F)ccc1-c1cc(Nc2cc(CS(C)(=O)=NC(=O)C(F)(F)F)cc(C(F)(F)F)n2)ncc1F` (single isomer, unassigned; (+)) [Example 24, (+)-2,2,2-Trifluoro-N-[{[2-{[5-fluoro-4-(4-fluoro-2-methoxyphenyl)pyridin-2-yl]amino}-6-(trifluoromethyl)-pyridin-4-yl]methyl}(methyl)oxido-λ^6-sulfanylidene]acetamide]: the results for the IC50 on CDK2/CycE and at CDK9/CycT1 were 4000 nM and 18 nM, respectively.

Take `CCOc1cc(F)ccc1-c1cc(Nc2cc(CS(C)(=N)=O)cc(F)n2)ncc1F` (single isomer, unassigned; (+)) [Example 28, (+)-4-(2-Ethoxy-4-fluorophenyl)-5-fluoro-N-{6-fluoro-4-[(S-methylsulfonimidoyl)methyl]pyridin-2-yl}pyridin-2-amine]: the values for the IC50 at CDK2/CycE and at CDK9/CycT1 were 1170 nM and 5 nM, respectively.

`COc1cc(F)ccc1-c1cc(Nc2cc(CS(C)(=N)=O)cc(F)n2)ncc1F` (single isomer, unassigned; (-)) [Example 20, (−)-5-Fluoro-4-(4-fluoro-2-methoxyphenyl)-N-{6-fluoro-4-[(S-methylsulfonimidoyl)methyl]pyridin-2-yl}pyridin-2-amine]: the IC50 against CDK2/CycE was determined as 815 nM; against CDK9/CycT1, 2 nM.

Regarding `COc1cc(F)ccc1-c1cc(Nc2cc(CS(C)(=O)=NC(=O)C(F)(F)F)cc(C(F)(F)F)n2)ncc1F` (single isomer, unassigned; (-)) [Example 25, (−)-2,2,2-Trifluoro-N-[{[2-{[5-fluoro-4-(4-fluoro-2-methoxyphenyl)pyridin-2-yl]amino}-6-(trifluoromethyl)-pyridin-4-yl]methyl}(methyl)oxido-λ^6-sulfanylidene]acetamide], the results for the IC50 at CDK2/CycE and on CDK9/CycT1 were 2640 nM and 15 nM, respectively.

Take `CCOc1cc(F)ccc1-c1cc(Nc2cc(CS(C)(=N)=O)cc(F)n2)ncc1F` (single isomer, unassigned; (-)) [Example 29, (−)-4-(2-Ethoxy-4-fluorophenyl)-5-fluoro-N-{6-fluoro-4-[(S-methylsulfonimidoyl)methyl]pyridin-2-yl}pyridin-2-amine]: the values for the IC50 on CDK2/CycE and against CDK9/CycT1 were 1710 nM and 3 nM, respectively.

As a reminder, the IC50 is the concentration needed to halve the response being measured. Lower therefore signals greater potency in that assay.
